According to patent US6982348B2, “Aminoethanol derivatives” (Takeda Pharmaceutical Company Limited, priority 2001, dated 2006):
Structures can show the parent of a compound that is named as a salt.

Row | Structure (SMILES) | melting point [°C]
1 | O=C(N[C@H](Cc1cccc(OC(F)(F)C(F)F)c1)[C@@H](O)c1ccc(Cl)s1)c1cccc2c1C=CCCC2 (racemic) [Example 289, N-[(1RS,2RS)-2-(5-chloro-2-thienyl)-2-hydroxy-1-[3-(1,1,2,2-tetrafluoroethoxy)benzyl]ethyl]-6,7-dihydro-5H-benzo[a]cycloheptene-1-carboxamide] | 177 to 178
2 | O=C(N[C@H](Cc1cccc(C(F)(F)F)c1)[C@@H](O)c1ccc(F)cc1)C1CCCCC1 (racemic) [Example 138, N-((1RS,2SR)-2-(4-fluorophenyl)-2-hydroxy-1-((3-(trifluoromethyl)phenyl)methyl)ethyl)cyclohexanecarboxamide] | 190 to 191
3 | O=C(Nc1ccccc1)c1ccc([C@H](O)[C@@H](Cc2cccc(OC(F)(F)C(F)F)c2)NC(=O)c2cccc3c2C=CCCC3)cc1 (racemic) [Example 314, N-[(1RS,2SR)-2-[4-(anilinocarbonyl)phenyl]-2-hydroxy-1-[3-(1,1,2,2-tetrafluoroethoxy)benzyl]ethyl]-6,7-dihydro-5H-benzo[a]cycloheptene-1-carboxamide] | 205 to 206
4 | O=C(N[C@H](Cc1cccc(OC(F)(F)C(F)F)c1)[C@@H](O)c1ccc(F)cc1)OCc1ccccc1 (racemic) [Example 287, benzyl N-[(1RS,2SR)-2-(4-fluorophenyl)-2-hydroxy-1-[3-(1,1,2,2-tetrafluoroethoxy)benzyl]ethyl]carbamate] | 136 to 137
5 | CC1(C)COc2ccc(C[C@@H](NC(=O)c3cccc4c(Cl)cccc34)[C@@H](O)c3cccc(Cl)c3)cc21 (racemic) [Example 378, 5-chloro-N-{(1RS,2SR)-2-(3-chlorophenyl)-1-[(3,3-dimethyl-2,3-dihydro-1-benzofuran-5-yl)methyl]-2-hydroxyethyl}-1-naphthamide] | 191 to 192
6 | O=C(N[C@H](Cc1cccc(OC(F)(F)C(F)F)c1)[C@@H](O)c1ccc(Oc2ccccn2)cc1)c1ccc(F)c2ccccc12 (racemic) [Example 259, 4-fluoro-N-{(1RS,2SR)-2-hydroxy-2-[4-(pyridin-2-yloxy)phenyl]-1-[3-(1,1,2,2-tetrafluoroethoxy)benzyl]ethyl}-1-naphthamide] | 176 to 177
7 | O=C(O)CCC(=O)O[C@H](c1ccc(F)cc1)[C@H](Cc1cccc(OC(F)(F)C(F)F)c1)NC(=O)c1ccc(F)c2ccccc12 (racemic) (as salt: succinate) [Example 388, (1RS,2SR)-2-[(4-fluoro-1-naphthoyl)amino]-1-(4-fluorophenyl)-3-[3-(1,1,2,2-tetrafluoroethoxy)phenyl]propyl hydrogen succinate] | 181 to 182
8 | O=C(N[C@H](Cc1ccc(C(F)(F)F)c(F)c1)[C@@H](O)c1ccc(F)cc1)c1ccc(F)c2ccccc12 (racemic) [Example 156, N-((1RS,2SR)-2-(4-fluorophenyl)-1-((3-fluoro-4-(trifluoromethyl)phenyl)methyl)-2-hydroxyethyl)-4-fluoro-1-naphthalenecarboxamide] | 212 to 213
9 | O=C(N[C@H](Cc1ccc(C(F)F)cc1)[C@@H](O)c1ccc(F)cc1)c1ccc(F)c2ccccc12 (racemic) [Example 165, N-[(1RS,2SR)-1-[4-(difluoromethyl)benzyl]-2-(4-fluorophenyl)-2-hydroxyethyl]-4-fluoronaphthalene-1-carboxamide] | 212 to 213
10 | CC(C)(C)OC(=O)N[C@H](Cc1cccc(CC(F)(F)C(F)F)c1)[C@@H](O)c1ccc(F)cc1 (racemic) [Example 337, tert-butyl N-[(1RS,2SR)-2-(4-fluorophenyl)-2-hydroxy-1-[3-(2,2,3,3-tetrafluoropropyl)benzyl]ethyl]carbamate] | 168 to 169
11 | O=C(NC(Cc1ccc(C(F)(F)F)cc1)C(O)c1ccc(F)cc1)c1ccccc1F (racemic) [Example 18, 2-fluoro-N-[2-(4-fluorophenyl)-2-hydroxy-1-[[4-(trifluoromethyl)phenyl]methyl]ethyl]benzamide] | 115 to 117
12 | O=C(N[C@H](Cc1ccc(C(F)(F)F)cc1)[C@@H](O)c1ccc(F)cc1)c1ccc([N+](=O)[O-])c2c1CCCC2 (racemic) [Example 38, N-[(1RS,2SR)-2-(4-fluorophenyl)-2-hydroxy-1-[4-(trifluoromethyl)benzyl]ethyl]-4-nitro-5,6,7,8-tetrahydronaphthalene-1-carboxamide] | 207 to 209
13 | CC(C)(C)COc1cccc(C[C@@H](NC(=O)c2cccc3c(Cl)cccc23)[C@@H](O)c2cccc(Cl)c2)c1 (racemic) [Example 367, N-[(1RS,2SR)-1-[3-(neopentyloxy)benzyl]-2-(3-chlorophenyl)-2-hydroxyethyl]-5-chloro-1-naphthamide] | 142 to 143
14 | O=C(N[C@H](Cc1cccc(OC(F)(F)C(F)F)c1)[C@@H](O)c1ccc(-c2cccc(Cl)c2)cc1)c1cccc2c1C=CCCC2 (racemic) [Example 295, N-[(1RS,2SR)-2-(3′-chloro[1,1′-biphenyl]-4-yl)-2-hydroxy-1-[3-(1,1,2,2-tetrafluoroethoxy)benzyl]ethyl]-6,7-dihydro-5H-benzo[a]cycloheptene-1-carboxamide] | 131 to 132
15 | CC(C)(F)C(F)c1cccc(C[C@@H](NC(=O)c2cccc3c2C=CCCC3)[C@@H](O)c2ccc(F)cc2)c1 (mixture of isomers) [Example 342, N-[(1RS,2SR)-1-[3-(1,2-difluoro-2-methylpropyl)benzyl]-2-(4-fluorophenyl)-2-hydroxyethyl]-6,7-dihydro-5H-benzo[a]cycloheptene-1-carboxamide] | 102 to 104
16 | O=C(N[C@H](Cc1cccc(C=C(F)C(F)F)c1)[C@@H](O)c1ccc(F)cc1)c1cccc2c1C=CCCC2 (racemic) [Example 335, N-[(1RS,2SR)-2-(4-fluorophenyl)-2-hydroxy-1-[3-(2,3,3-trifluoro-1-propenyl)benzyl]ethyl]-6,7-dihydro-5H-benzo[a]cycloheptene-1-carboxamide] | 165 to 167
17 | CC(C)(C)OC(=O)N[C@H](Cc1cc(OC(F)(F)C(F)F)no1)[C@@H](O)c1ccc(F)cc1 (racemic) [Example 319, tert-butyl N-[(1RS,2SR)-2-(4-fluorophenyl)-2-hydroxy-1-[[3-(1,1,2,2-tetrafluoroethoxy)isooxazol-5-yl]methyl]ethyl]carbamate] | 114 to 115
18 | O=C(N[C@H](Cc1ccc(C(F)(F)F)cc1)[C@@H](O)c1ccc(F)cc1)C1CCCCC1 (racemic) [Example 52, N-((1RS,2SR)-2-(4-fluorophenyl)-2-hydroxy-1-((4-(trifluoromethyl)phenyl)methyl)ethyl)cyclohexanecarboxamide] | 203 to 204
19 | CC(C)(C)c1ccc(C[C@@H](NC(=O)c2ccc(F)c3ccccc23)[C@@H](O)c2ccc(F)cc2)cc1 (racemic) [Example 357, N-[(1RS,2SR)-1-(4-tert-butylbenzyl)-2-(4-fluorophenyl)-2-hydroxyethyl]-4-fluoro-1-naphthamide] | 149 to 150
20 | O=C1CC(C(=O)N[C@H](Cc2ccc(C(F)(F)F)cc2)[C@@H](O)c2ccc(F)cc2)c2ccccc21 (mixture of isomers) [Example 53, N-((1RS,2SR)-2-(4-fluorophenyl)-2-hydroxy-1-((4-(trifluoromethyl)phenyl)methyl)ethyl)-3-oxo-2,3-dihydro-1H-indene-1-carboxamide] | 237 to 238
21 | O=C(CCc1ccccc1)N[C@H](Cc1ccc(C(F)(F)F)cc1)[C@@H](O)c1ccccc1F (racemic) [Example 180, N-((1RS,2SR)-2-(2-fluorophenyl)-2-hydroxy-1-((4-(trifluoromethyl)phenyl)methyl)ethyl)-3-phenylpropanamide] | 124 to 125
22 | O=C(N[C@H](Cc1cccc(OC(F)(F)C(F)F)c1)[C@@H](O)c1ccc(Oc2ccccc2)cc1)c1ccc(F)c2ccccc12 (racemic) [Example 267, 4-fluoro-N-{(1RS,2SR)-2-hydroxy-2-(4-phenoxyphenyl)-1-[3-(1,1,2,2-tetrafluoroethoxy)benzyl]ethyl}-1-naphthamide] | 155 to 156
23 | O=C(NC(Cc1ccc(C(F)(F)F)cc1)C(O)c1ccc(F)cc1)c1ccc(Cl)cc1 (racemic) [Example 9, 4-chloro-N-[2-(4-fluorophenyl)-2-hydroxy-1-[[4-(trifluoromethyl)phenyl]methyl]ethyl]benzamide] | 170 to 180
24 | CC(C)(C)OC(=O)NCC(=O)O[C@H](c1ccc(F)cc1)[C@H](Cc1cccc(OC(F)(F)C(F)F)c1)NC(=O)c1cccc2c1C=CCCC2 (racemic) [Example 386, N-(tert-butoxycarbonyl)glycine (1RS,2SR)-2-[(6,7-dihydro-5H-benzo[a]cyclohepten-1-ylcarbonyl)amino]-1-(4-fluorophenyl)-3-[3-(1,1,2,2-tetrafluoroethoxy)phenyl]propyl ester] | 151 to 152
25 | O=C(CCCc1ccccc1)N[C@H](Cc1cccc(C(F)(F)F)c1)[C@@H](O)c1ccc(F)cc1 (racemic) [Example 139, N-((1RS,2SR)-2-(4-fluorophenyl)-2-hydroxy-1-((3-(trifluoromethyl)phenyl)methyl)ethyl)-4-phenylbutyramide] | 110 to 111
26 | CC(C)(C)OC(=O)N[C@H](Cc1cccc(OC(F)(F)C(F)F)c1)[C@@H](O)c1ccc(Oc2cccnc2)cc1 (racemic) [Example 260, tert-butyl (1RS,2SR)-2-hydroxy-2-[4-(pyridin-3-yloxy)phenyl]-1-[3-(1,1,2,2-tetrafluoroethoxy)benzyl]ethylcarbamate] | 123 to 124
27 | CC(C)(C)OC(=O)N[C@H](Cc1cccc(OC(F)(F)C(F)F)c1)[C@@H](O)c1csc(-c2ccccc2)n1 (racemic) [Example 361, tert-butyl (1RS,2RS)-2-hydroxy-2-(2-phenyl-1,3-thiazol-4-yl)-1-[3-(1,1,2,2-tetrafluoroethoxy)benzyl]ethylcarbamate] | 127 to 128
28 | O=C(CCc1ccccc1)N[C@H](Cc1ccc(C(F)(F)F)cc1)[C@@H](O)c1cccc(Oc2ccccc2)c1 (racemic) [Example 208, N-((1RS,2SR)-2-hydroxy-2-(3-phenoxyphenyl)-1-((4-(trifluoromethyl)phenyl)methyl)ethyl)-3-phenylpropanamide] | 134 to 135
